Data published in patent US9464064B2, “HCV helicase inhibitors and methods of use thereof” (University of Kansas, priority 2011, dated 2016).

What was measured:
HCV helicase = target: T1, HCV helicase (Hepatitis C virus genotype 1b, UniProt Q9WMX2); assay: MBHA with RNA substrate (HCV helicase-catalyzed RNA unwinding); type: biochemical; details: in words
T1 construct: truncated C-terminally His-tagged NS3 proteins lacking the N-terminal protease, called NS3h; His-tag (C); made in house
Source text: All oligonucleotides were purchased from Integrated DNA Technologies (IDT, Coralville, Iowa). The partially duplex DNA substrates used in MBHAs consisted of a helicase substrate forming 25 base pairs and consists of a 45-mer bottom strand 5′-GCTCCCCGTTCATCGATTGGGGAGC(T)20-3′ (SEQ ID NO:1) and the 25-mer HCV top strand 5′-Cy5-GCTCCCCAATCGATGAACGGGGAGC-IBRQ-3′ (SEQ ID NO:2). The 19 base pair RNA substrate used in MBHAs was composed of a 39 nucleotide long bottom strand 5′-AGU GCC UUG ACG AUA CAG C(U)20-3′ (SEQ ID NO:3) and the 24 nucleotide long top strand 5′-Tye^665-AGUGCGCUGUAUCGUCAAGGCACU-IBRQSp-3′ (SEQ ID NO:4). Underlined areas denote hairpin-forming regions. DNA and RNA substrates were annealed and purified as described previously (Belon & Frick (2008) BioTechniques 45:433-40, 442).
All molecular beacon-based helicase assays (MBHAs) were performed according to known methods (Belon & Frick (2008) supra; Belon & Frick (2009) supra). […] In each flat, black 384-well plate, 56 compounds were tested, in triplicate, along with three negative controls (DMSO only), three positive controls (500 nM dT20), and two wells with no enzyme. Fluorescence was read before ATP (F0) addition and 30 minutes after ATP was added to 1 mM (F30) using a Tecan Infinite M200 fluorescence microplate reader with excitation and emission wavelengths set to 643 and 670 nm, respectively. Percent inhibition was calculated with equation 1, and compound interference in the MBHA was calculated with equation 2.
To monitor helicase reaction kinetics and to calculate IC50 values, MBHAs were performed in 60 μL in white ½ area 96-well plates and measured in a Thermo Varioscan Multimode reader (Thermo Scientific) using the 643 nm excitation wavelength and 667 emission wavelengths. […] Initial reaction velocities were calculated by fitting first-order decay equation to data obtained after ATP addition and calculating an initial velocity form the resulting amplitude and rate constant.

HCV replicon RNA = assay: HCV RNA RT-qPCR assay in replicon cells; type: cell-based, hepatitis C virus; details: qRT-PCR, 10 days of treatment
Method: For the HCV RNA reverse transciptase quantitative PCR (RT-qPCR) assay, cells were treated, washed 2 times with PBS, harvested, and collected by centrifugation (1000 g) for 5 minutes at 4° C. Total RNA was then extracted using the TRIZOL kit (Invitrogen) and suspended in 30 μL of nuclease-free water. RNA concentration was determined from A260. RT-qPCR was performed using TAQMAN probes, 1 μg total RNA and the QSCRIPT One-step Fast qRT-PCR kit (Quanta Biosciences, Gaithersburg, Md.). Reverse transcription was carried out at 50° C. for 20 minutes followed by one cycle at 95° C. for 5 minutes and 40 cycles at 95° C. for 15 seconds and 60° C. for 1 minute. […] The amount of HCV RNA in each sample was determined by first calculating the ΔCT of each sample, which was obtained by subtracting the threshold cycle (CT) obtained with the rRNA primers obtained from that of the CT with the HCV primers. ΔΔCT values were obtained by subtracting ΔCT values obtained in the presence of compound from ΔCT obtained with cells treated with DMSO only. The relative changes in HCV RNA levels were then calculated by assuming that each CT difference reflected a two-fold difference in RNA level (i.e., Expression=2^−ΔΔCT).

[1] = system: NS5A in Huh7.5/HCV Con1sg Rluc replicon cells; assay: Western blot of NS5A in replicon cells; type: cell-based, hepatitis C virus; details: 4-day exposure
Method: To analyze effects on HCV proteins expression by western blot, Huh7.5/HCV Con1sg Rluc replicon stable cells were washed with PBS, harvested in PBS, and lysed with RIPA buffer for 20 minutes on ice and cleared lysates were obtained by centrifugation at 14,000 rpm for 20 minutes at 4° C. Protein concentrations were determined with the BIO-RAD protein assay kit (Bio-Rad) and 15 μg total proteins was resolved on 10% sodium dodecyl sulfate-polyacrylamide gel electrophoresis (SDS-PAGE) and transferred to nitrocellulose membrane. The blots were probed with primary anti-NS5A mAb (Meridian life Sciences, Saco, Me.) and a peroxidase-conjugated secondary antibody (Cell Signaling, Danvers, Mass.) and were developed with enhanced chemiluminescence (ECL) detection reagents (Pierce, Rockford, Ill.). The blots were stripped and probed again with primary anti-tubulin antibody (Sigma) to confirm equal loading of protein and a peroxidase-conjugated anti-mouse secondary antibody (Cell Signaling) and developed with ECL reagents (Pierce).
To further characterize the anti-viral activity of this class of compounds, HCV Renilla luciferase (Rluc) subgenomic replicon cells were exposed to different concentrations of compound 24 and the effect of compound 24 on HCV replication was assessed on HCV Rluc reporter gene activity. […]

T1 sequence (Q9WMX2 1192-1657): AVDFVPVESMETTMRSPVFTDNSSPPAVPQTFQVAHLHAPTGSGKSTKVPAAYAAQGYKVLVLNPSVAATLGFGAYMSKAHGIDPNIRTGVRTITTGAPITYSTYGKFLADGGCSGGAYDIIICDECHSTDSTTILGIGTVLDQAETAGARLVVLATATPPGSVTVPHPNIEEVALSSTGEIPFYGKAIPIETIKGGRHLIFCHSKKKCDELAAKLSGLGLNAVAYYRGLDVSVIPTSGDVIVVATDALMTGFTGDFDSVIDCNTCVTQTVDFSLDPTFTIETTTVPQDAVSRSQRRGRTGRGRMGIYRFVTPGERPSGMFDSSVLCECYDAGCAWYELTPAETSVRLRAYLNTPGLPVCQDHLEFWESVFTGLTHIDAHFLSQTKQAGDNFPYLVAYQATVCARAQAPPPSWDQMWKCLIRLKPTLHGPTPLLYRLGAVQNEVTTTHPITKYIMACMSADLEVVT

SMILES | effect on HCV helicase catalyzed RNA unwinding (HCV helicase) | decrease of HCV replicon RNA content (HCV replicon RNA) | cellular NS5A levels [1]
Cc1ccc2nc(-c3ccc4nc(-c5ccc(NC(=O)c6cccc(Cl)c6)cc5)sc4c3)sc2c1S(=O)(=O)O [Compound 17, 2′-(4-(3-chlorobenzamido)phenyl)-6-methyl-[2,6′-bibenzo[d]thiazole]-7-sulfonic acid] | inhibited HCV helicase-catalyzed RNA-unwinding |  | 
Cc1ccc2nc(-c3ccc4nc(-c5ccc(NC(=O)c6cc(C(F)(F)F)cc(C(F)(F)F)c6)cc5)sc4c3)sc2c1S(=O)(=O)O [Compound 24, 2′-(4-(3,5-bis(trifluoromethyl)benzamido)phenyl)-6-methyl-[2,6′-bibenzo[d]thiazole]-7-sulfonic acid] |  | about 13 fold | reduced NS5A levels in a time-dependent manner
